The source of these data is patent publication US5250539A, “Hexahydrobenzo[f]quinolinones” (priority 1991, dated 1993).

In one assay the target is T1, 5α-Reductase (Homo sapiens, UniProt P18405).
T1 construct: host or cells: Hs68 human genital skin fibroblasts
T1 sequence (P18405 1-259): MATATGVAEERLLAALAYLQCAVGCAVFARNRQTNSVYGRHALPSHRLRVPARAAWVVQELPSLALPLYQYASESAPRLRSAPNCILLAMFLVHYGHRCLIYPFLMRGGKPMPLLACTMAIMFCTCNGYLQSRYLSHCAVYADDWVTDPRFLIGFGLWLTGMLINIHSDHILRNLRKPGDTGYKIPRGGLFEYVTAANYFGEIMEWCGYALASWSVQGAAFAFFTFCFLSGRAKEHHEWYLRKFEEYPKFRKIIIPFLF
Put plainly: Inhibition of 5α-reductase in Hs68 human genital skin fibroblasts (conversion of labelled testosterone, TLC). To be noted: 1.0 μM test compound; Hs68 cells; 12 μM testosterone; 4 h; read-out: % Inhibition. The assay is classed as cell-based. On the procedure:
Cell Culture: 5α-Reductase activity was measured using Hs68 human genital skin fibroblasts which were originally purchased from the American Type Culture Collection (Rockville, Md.). The cells were grown in Dulbecco's Modified Eagle's Medium (DMEM) plus 10% stripped fetal bovine serum which was supplemented with amphotericin B (0.25 μg/ml) and gentamicin (25.0 μg/ml) (GIBCO, Grand Island, N.Y.). The serum was stripped of endogenous steroids by incubation with dextran-coated charcoal prior to its addition to the media. The cells were maintained at 37° C. in an atmosphere of 95% air, 5% CO2 and were passaged every 7-10 days by exposure to a trypsin-EDTA solution (0.025% trypsin, 0.265 mM EDTA). Prior to the assay the Hs68 cells were harvested and plated in Falcon 6-well plates (Becton Dickinson Labware, Lincoln Park, N.J.) at a density of 6×10^4 cells per well. The cells were allowed to grow for 4-5 days or until they reached approximately 80% confluence.
Assay Method I: The substrate was prepared by dissolving unlabeled testosterone (Sigma Chemical Co., St. Louis, Mo.) in absolute ethanol followed by the addition of [7-^3 H (N)]-testosterone (23.3 Ci/mmole, New England Nuclear, Boston, Mass.). The steroid solution was taken to dryness under a stream of nitrogen and then reconstituted in media.
Assay Method II: The substrate used for this method was [^14 C]-testosterone (50 mCi/mmol) (New England Nuclear, Boston, Mass.). An aliquot of the substrate was taken to dryness under a stream of nitrogen. After the addition of 30 μl of ethanol, the testosterone was brought up in an appropriate volume of media.
Sample Preparation: The test compounds were dissolved in absolute ethanol in order to achieve the desired concentration. Subsequent dilutions of the test compounds with media were performed by the Biomek 1000 Automated Laboratory Workstation (Beckman Instruments, Palo Alto, Calif.). The existing media in the sample wells was aspirated and replaced with fresh media. Test compound was then added to the wells followed by the addition of 0.5 ml of the substrate. The volume of the incubation mixture was maintained at 2.0 ml. The final substrate concentration was 12 μM. The concentration of the test compounds ranged from 0.001-15 μM. An additional three wells (background) containing media and substrate but no cells were also included to account for the non-enzymatic metabolism of the substrate. The plates were returned to the incubator and incubated for four hours.
At the end of the incubation the media was collected and transferred to an extraction tube containing 5 ml of tolueneethanol (9:1), to which has been added 40-250 μg each of unlabeled carrier steroids (estriol, estradiol, estrone, 5α-androstan-3α,17β-diol, 5α-androstan-3β,17β-diol, 4-androstene-3,17-dione, 5α-androstan-3,17-dione, testosterone, and 5α-dihydrotestosterone) (Steraloids, Inc. Wilton, N.H.). In the case of Assay Method I the extraction tube also contained 1,000 and 10,000 dpm of [4-^14 C]-dihydrotesterone (50-60 mCi/mmol) and [4-^14 C]-testosterone (50 mCi/mmol) (New England Nuclear, Boston, Mass.), respectively. The [^14 C]-steroids were included as recovery standards to quantify procedural losses. A small amount of NaCl was also added to the extraction tubes to prevent foaming. The samples were vortexed for approximately 30 seconds and then centrifuged for 10 minutes at 500×g. The organic phase was collected and the samples taken to dryness, redissolved in dichloromethane-methanol (9:1) and were analyzed by thin layer chromatography using one of the methods described below.
Turning to `CN1C(=O)CCC2=C1CCc1cccc(F)c12` [Example 22, 10-fluoro-4-methyl-1,2,3,4,5,6-hexahydrobenzo[f]quinolin-3-one], the inhibition at 1 µM is 35%. On the same count and under the same terms, next, `O=C1CCC2=C(CCc3cccc(Cl)c32)N1` [Example 17, 10-chloro-1,2,3,4,5,6-hexahydrobenzo[f]quinolin-3-one]: 0.3%; `O=C1CCC2=C(CCc3cc(Cl)ccc32)N1` [Example 10, 8-chloro-1,2,3,4,5,6-hexahydrobenzo[f]quinolin-3-one]: 81%; `CN1C(=O)CCC2=C1CCc1c(F)cccc12` [Example 19, 7-fluoro-4-methyl-1,2,3,4,5,6-hexahydrobenzo[f]quinolin-3-one]: 61%. The same measure, in the same setting: next, `O=C1CCC2=C(CCc3cccc(Br)c32)N1` [Example 16, 10-bromo-1,2,3,4,5,6-hexahydrobenzo[f]quinolin-3-one]: 14%; `Cc1cccc2c1C1=C(CC2)NC(=O)CC1` [Example 29, 10-methyl-1,2,3,4,5,6-hexahydrobenzo[f]quinolin-3-one]: 41%. The same measure, in the same setting: the figure for `CN1C(=O)CCC2=C1CCc1ccccc12` [Example 7, 4-methyl-1,2,3,4,5,6,-hexahydrobenzo[f]quinolin-3-one] is 48%. In the case of `CN1C(=O)CCC2=C1CCc1ccc(F)cc12` [Example 21, 9-fluoro-4-methyl-1,2,3,4,5,6-hexahydrobenzo[f]quinolin-3-one], the inhibition at 1 µM turned out to be 60%. On the same count and under the same terms, next, `COc1cccc2c1C1=C(CC2)NC(=O)CC1` [Example 27, 10-methoxy-1,2,3,4,5,6-hexahydrobenzo[f]quinolin-3-one]: 0%. Still for that read-out and setting: the figure for `COc1cc2c(cc1OC)C1=C(CC2)NC(=O)CC1` [Example 28, 8,9-dimethoxy-1,2,3,4,5,6-hexahydrobenzo[f]quinolin-3-one] is 33%; for `COc1ccc2c(c1)CCC1=C2CCC(=O)N1` [Example 11, 8-methoxy-1,2,3,4,5,6-hexahydrobenzo[f]quinolin-3-one] it is 20%; for `O=C1CCC2=C(CCc3c(F)cccc32)N1` [Example 18, 7-fluoro-1,2,3,4,5,6-hexahydrobenzo[f]quinolin-3-one] it is 36%.

For the compound `COc1ccc2c(c1)C1=C(CC2)NC(=O)CC1` [Example 26, 9-methoxy-1,2,3,4,5,6-hexahydrobenzo[f]quinolin-3-one], the inhibition at 1 µM is 12%.

`O=C1CCC2=C(CCc3cc(F)ccc32)N1Cc1ccccc1` [Example 23, 8-fluoro-4-benzyl-1,2,3,4,5,6-hexahydrobenzo[f]quinolin-3-one]: the inhibition at 1 µM worked out at 37%.

As to `CCN1C(=O)CCC2=C1CCc1cc(F)ccc12` [Example 24, 8-fluoro-4-ethyl-1,2,3,4,5,6-hexahydrobenzo[f]quinolin-3-one], the inhibition at 1 µM is 31%.

The assay is the same for the next values; noted with them: Hs68.
For `O=C1CCC2=C(CCc3cccc(F)c32)N1` [Example 20, 10-fluoro-1,2,3,4,5,6-hexahydrobenzo[f]quinolin-3-one], the inhibition at 1 µM worked out at 22%.
